Measurements reported in patent publication US8865656B2, “Beta-hairpin peptidomimetics having CXCR4 antagonizing activity” (Polyphor AG, priority 2009, dated 2014).
Read-outs that look alike come from different tables or passages of the source. Positions of bridges follow the written chain, without caps; N, C: chain ends. Non-standard residues stand in square brackets, D forms with d. Residues, ends and D or L forms follow the SMILES beside them. ξ: configuration not given here. Oic = O=C(O)[C@@H]1C[C@@H]2CCCC[C@@H]2N1; β3hS = N[C@@H](CO)CC(=O)O; Dab = NCC[C@H](N)C(=O)O; ξT = CC(O)C(N)C(=O)O

Tests used:
[1] = Plasma stability in human plasma
Experimental: (§1) The stability of the peptides in human and mouse plasma was determined by applying the following method: 315 μL/deep well of freshly thawed human plasma (Basler Blutspende-dienst) and mouse plasma (Harlan Sera-Lab, UK), respectively, were spiked with 35 μL/well of compound in PBS (100 μM, triplicate) and incubated at 37° C. […] Following shaking for 2 min the occurred suspensions were filtrated by vacuum and finally, 100 μL of each filtrate were transferred to a propylene microtiter plate, and analyzed by LC/MS as follows: Column: Waters, XBridge C18, mobile phases: (A) water+0.1% formic acid and (B) acetonitrile/water, 95/5 (v/v)+0.1% formic acid, gradient: 5%-100% (B) in 2 minutes, electrospray ionization, MRM detection (triple quadrupole). The peak areas were determined and triplicate values are averaged. The stability is expressed in percent of the initial value at t=0. (tx/to×100). By using the TREND function of EXCEL (Microsoft Office 2003) T1/2 were determined.

[2] = Plasma stability in mouse plasma
Experimental: as §1

[3] = test system: human red blood cells (hRBC); conditions: red cells of human, 1 h
Experimental: The peptides were tested for their hemolytic activity against human red blood cells (hRBC). Fresh hRBC were washed three times with phosphate buffered saline (PBS) and centrifuged for 10 min at 2000×g. Compounds (100 μM) were incubated with 20% hRBC (v/v) for 1 h at 37° C. The final erythrocyte concentration was approximately 0.9×10^9 cells/mL. A value of 0% and 100% cell lyses, respectively, was determined by incubation of hRBC in the presence of PBS alone and 0.1% Triton X-100 in H2O, respectively. The samples were centrifuged, the supernatants were 20-fold diluted in PBS buffer and the optical densities (OD) were measured at 540 nm.
Percent hemolysis was calculated as follows: (OD540peptide/OD540H2O)×100%.

[4] = in vitro; assay type: cell-based
Experimental: (§2) The cytotoxicity of the depsipeptides to HELA cells (Acc57) and COS-7 cells (CRL-1651) was determined using the MTT reduction assay (T. Mossman, J. Immunol. Meth. 1983, 65, 55-63; M. V. Berridge, A. S. Tan, Arch. Biochem. Biophys. 1993, 303, 474-482). Briefly, the method was as follows: 7000 HELA cells/well and 4500 COS-7 cells/well were seeded and grown in 96-well microtiter plates for 24 h at 37° C. at 5% CO2. Thereafter, time zero (Tz) was determined by MTT reduction (see below). The supernatant of the remaining wells was discarded, and fresh medium and compounds in serial dilutions (12.5, 25 and 50 μM, triplicates) were pipetted into the wells. After incubation of the cells for 48 h at 37° C. at 5% CO2 the supernatant was discarded again and 100 μL MTT reagent (0.5 mg/mL in RPMI1640 and DMEM, respectively)/well was added. Following incubation at 37° C. for 2 h the media were aspirated and the cells were spiked (100 μL isopropanol/well). The absorbance of the solubilized formazan was measured at 595 nm (OD595peptide). For each concentration averages were calculated from triplicates. The percentage of growth was calculated as follows: (OD595peptide-OD595Tz-OD595Empty well)/(OD595Tz-OD595Empty well)×100%. The GI50 (Growth Inhibition) concentrations were calculated for each depsipeptide by using a trend line function for the concentrations (50, 25, 12.5 and 0 μM), the corresponding percentages and the value 50, (=TREND (C50:C0, %50:%0, 50).

[5] = target: T1, human CXCR4 (Homo sapiens, UniProt P61073); test: Ca2+-assay: CXCR4-antagonizing activity (SDF-1 induced calcium mobilization); assay type: cell-based; conditions: mouse pre-B cell line 300-19 stably transfected with human CXCR4, read-out: IC50% [nM] ± SD, CXCR4 receptor
T1 construct: expressed in transfected cells; host or cells: mouse pre-B cell line 300-19
Description: 2.3. Ca^2+-Assay: CXCR4-Antagonizing Activity of the Peptides
Increases in intracellular calcium were monitored using a Flexstation 384 (Molecular Devices, Sunnyvale, Calif.) to assay the depsipeptides for CXCR4 antagonism in a mouse pre-B cell line 300-19 stably transfected with human CXCR4 (E. Oberlin, A. Amara, F. Bachelerie, C. Bessia, J.-L. Virelizier, F. Arenzana-Seisdedos, O. Schwartz, J.-M. Heard, I. Clark-Lewis, D. F. Legler, M. Loetscher, M. Baggiolini, B. Moser, Nature 1996, 382, 833-835; M. Loetscher, T. Geiser, T. O'Reilly, R. Zwalen, M. Baggiolini, B. Moser, J. Biol. Chem. 1994, 269, 232-237; M. D'Apuuo, A. Rolink, M. Loetscher, J. A. Hoxie, I. Clark-Lewis, F. Melchors, M. Baggiolini, B. Moser, Eur. J. Immunol. 1997, 27, 1788-1793). The cells were batch loaded with the Calcium 4 Assay kit (Molecular Devices) in assay buffer (Hanks Balanced salt solution [HBSS], 20 mM HEPES, pH 7.4, 0.1% BSA) for 1 h at room temperature and labeled cells were dispensed into black 96 well assays plates (Costar No. 3603). Calcium mobilization induced by stromal-derived factor-1 (SDF-1) was measured in the Flexstation 384 (excitation: 485 nm; emission: 525 nm) for 90 seconds. Antagonist activity of peptides was determined by spiking the cells with compounds prior to SDF-1 addition. Dose response curves (compound concentration versus % maximum response for SDF-1) were determined for each antagonist and IC50 values were calculated by fitting the data to a four parameter logistic equation using SoftmaxPro 4.8 (Molecular Devices).

[6] = in vitro; assay type: cell-based; remark: listed apart in the source
Experimental: as §2

[7] = human plasma, 37° C., sampling up to 240 min
[8] = mouse plasma, 37° C., sampling up to 240 min

T1 sequence (P61073 whole entry): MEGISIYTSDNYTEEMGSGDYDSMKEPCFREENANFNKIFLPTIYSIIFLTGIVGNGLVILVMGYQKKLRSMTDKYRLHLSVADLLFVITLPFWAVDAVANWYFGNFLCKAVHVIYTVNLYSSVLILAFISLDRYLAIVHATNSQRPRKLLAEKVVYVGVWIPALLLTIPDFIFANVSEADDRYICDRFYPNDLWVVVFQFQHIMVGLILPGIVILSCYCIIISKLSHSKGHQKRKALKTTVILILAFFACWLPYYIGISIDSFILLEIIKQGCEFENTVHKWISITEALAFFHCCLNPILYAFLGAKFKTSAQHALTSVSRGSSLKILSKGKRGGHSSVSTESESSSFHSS

Compound | Plasmastability human pl. T1/2 [1, 7] | Plasmastability mouse pl. T1/2 [2, 8] | Hemolysis at 100 μM [3] | GI50 ([4]; African green monkey) | IC50 [5] | GI50 ([6]; human) | Plasmastability human pl. T1/2 ([1]; human, plasma, 10 μM) | Plasmastability mouse pl. T1/2 ([2]; mouse, plasma, 10 μM) | GI50 [4] | GI50 [6]
C[C@@H]1NC(=O)[C@H](Cc2c[nH]cn2)NC(=O)[C@H](Cc2ccc(O)cc2)NC(=O)[C@@H]2CCCN2C(=O)[C@@H](Cc2ccncc2)NC(=O)[C@H](CCCCN)NC(=O)[C@H](CCC(N)=O)NC(=O)[C@H](Cc2ccc(O)cc2)NC(=O)[C@@H]2CSSC[C@H](NC1=O)C(=O)N[C@@H](CO)C(=O)N[C@@H](C)C(=O)N1CCC[C@@H]1C(=O)N[C@@H](CCN)C(=O)N[C@@H](CCCNC(=N)N)C(=O)N[C@@H](Cc1ccc(O)cc1)C(=O)N2 [compound 6] | 4 h | 4 h | 2.4% | > 50 µM | 0.17 ± 0.1 nM | > 50 µM |  |  |  | 
C[C@@H]1NC(=O)[C@H](Cc2c[nH]cn2)NC(=O)[C@H](Cc2ccc(O)cc2)NC(=O)[C@@H]2CCCN2C(=O)[C@@H](Cc2ccc(O)cc2)N(C)C(=O)[C@H](CCCCN)NC(=O)[C@H](CCC(N)=O)NC(=O)[C@H](Cc2ccc(O)cc2)NC(=O)[C@@H]2CSSC[C@H](NC1=O)C(=O)N[C@@H](CO)C(=O)N[C@@H](C)C(=O)N1CCC[C@@H]1C(=O)N[C@@H](CCN)C(=O)N[C@@H](CCCNC(=N)N)C(=O)N[C@@H](Cc1ccc(O)cc1)C(=O)N2 [compound 7] | 4 h | 4 h | 0.6% | > 50 µM | 0.33 ± 0.1 nM | > 50 µM |  |  |  | 
C[C@@H]1NC(=O)[C@H](Cc2c[nH]cn2)NC(=O)[C@H](Cc2ccc(O)cc2)NC(=O)[C@@H]2C[C@@H]3CCCC[C@@H]3N2C(=O)[C@H]2CCCN2C(=O)[C@H](CCCCN)NC(=O)[C@H](CCC(N)=O)NC(=O)[C@H](Cc2ccc(O)cc2)NC(=O)[C@@H]2CSSC[C@H](NC1=O)C(=O)N[C@@H](CO)C(=O)N[C@@H](C)C(=O)N1CCC[C@@H]1C(=O)N[C@@H](CCN)C(=O)N[C@@H](CCCNC(=N)N)C(=O)N[C@@H](Cc1ccc(O)cc1)C(=O)N2 [compound 16] (cyclo(ACSA[dP][Dab]RYCYQK[dP][Oic]YH); disulfide 2-9) | 4 h | 4 h | 0.5% | > 50 µM | 1.46 ± 1.6 nM | > 50 µM |  |  |  | 
CC[C@@H](C)[C@H]1NC(=O)[C@H](CCCCN)NC(=O)[C@H](CCC(N)=O)NC(=O)[C@H](Cc2ccc(O)cc2)NC(=O)[C@@H]2CSSC[C@H](NC(=O)[C@H](C)NC(=O)[C@H](Cc3c[nH]cn3)NC(=O)[C@H](Cc3ccc(O)cc3)NC(=O)[C@@H]3CCCN3C1=O)C(=O)N[C@@H](CO)C(=O)N[C@@H](C)C(=O)N[C@H](Cc1c[nH]c3ccccc13)C(=O)N[C@@H](CCN)C(=O)N[C@@H](CCCNC(=N)N)C(=O)N[C@@H](Cc1ccc(O)cc1)C(=O)N2 [compound 11] | 4 h | 4 h | 1.7% | > 50 µM | 0.17 ± 0.02 nM | > 50 µM |  |  |  | 
CC[C@@H](C)[C@@H]1C(=O)N2CCC[C@H]2C(=O)N[C@@H](Cc2ccc(O)cc2)C(=O)N[C@@H](Cc2c[nH]cn2)C(=O)N[C@@H](C)C(=O)N[C@H]2CSSC[C@H](NC(=O)[C@H](Cc3ccc(O)cc3)NC(=O)[C@H](CCCNC(=N)N)NC(=O)[C@H](CCN)NC(=O)[C@H]3CCCN3C(=O)[C@H](C)NC(=O)[C@H](CO)NC2=O)C(=O)N[C@@H](Cc2ccc(O)cc2)C(=O)N[C@@H](CCC(N)=O)C(=O)N[C@@H](CCCCN)C(=O)N1C [compound 2] | 4 h | 4 h | 0.6% | > 50 µM | 1.22 ± 1 nM | > 50 µM |  |  |  | 
C[C@@H]1NC(=O)[C@H](CO)NC(=O)[C@@H]2CSSC[C@H](NC(=O)[C@H](Cc3ccc(O)cc3)NC(=O)[C@H](CCCNC(=N)N)NC(=O)[C@H](CCN)NC(=O)[C@@H](Cc3ccc(O)cc3)NC1=O)C(=O)N[C@@H](Cc1ccc(O)cc1)C(=O)N[C@@H](CCC(N)=O)C(=O)N[C@@H](CCCCN)C(=O)N(C)[C@H](C)C(=O)N1CCC[C@H]1C(=O)N[C@@H](Cc1ccc(O)cc1)C(=O)N[C@@H](Cc1c[nH]cn1)C(=O)N[C@@H](C)C(=O)N2 [compound 12] | 4 h | 4 h | 0.9% | > 50 µM | 0.1 ± 0.02 nM | > 50 µM |  |  |  | 
C[C@@H]1NC(=O)[C@H](Cc2c[nH]cn2)NC(=O)[C@H](Cc2ccc(O)cc2)NC(=O)[C@@H]2CCCN2C(=O)[C@H]2CCCN2C(=O)[C@H](CCCCN)NC(=O)[C@H](CCC(N)=O)NC(=O)[C@H](Cc2ccc(O)cc2)NC(=O)[C@@H]2CSSC[C@H](NC1=O)C(=O)N[C@@H](CO)CC(=O)N[C@@H](C)C(=O)N1CCC[C@@H]1C(=O)N[C@@H](CCN)C(=O)N[C@@H](CCCNC(=N)N)C(=O)N[C@@H](Cc1ccc(O)cc1)C(=O)N2 [compound 20] (cyclo(YHAC[β3hS]A[dP][Dab]RYCYQK[dP]P); disulfide 4-11) |  |  | 0.6% | > 50 µM | 2.66 ± 2.2 nM | > 50 µM | 4 h | 4 h |  | 
CC(O)C1NC(=O)[C@@H]2CSSC[C@H](NC(=O)[C@H](Cc3ccc(O)cc3)NC(=O)[C@H](CCCNC(=N)N)NC(=O)[C@H](CCN)NC(=O)[C@H]3CCCN3C(=O)[C@H](C)NC1=O)C(=O)N[C@@H](Cc1ccc(O)cc1)C(=O)N[C@@H](CCC(N)=O)C(=O)N[C@@H](CCCCN)C(=O)N1CCC[C@@H]1C(=O)N1CCC[C@H]1C(=O)N[C@@H](Cc1ccc(O)cc1)C(=O)N[C@@H](Cc1c[nH]cn1)C(=O)N[C@@H](C)C(=O)N2 (some centres unmarked) [compound 17] (cyclo(YHAC[ξT]A[dP][Dab]RYCYQK[dP]P); disulfide 4-11) | 4 h | 4 h | 1% |  |  |  |  |  | > 50 µM | > 50 µM
